Measurements reported in ChEMBL document CHEMBL2086270, “Rational Design, Synthesis, and SAR of a Novel Thiazolopyrimidinone Series of Selective PI3K-beta Inhibitors” (ACS Med Chem Lett, 2012).
Activity calls are given as the source filed them. The calls are words filed in the database; no cut-off is given here.

Columns and labels:
[1] = molecular target: Phosphatidylinositol 4,5-bisphosphate 3-kinase catalytic subunit alpha isoform (Homo sapiens, UniProt P42336); assay: Inhibition of PI3K alpha by continuous TR-FRET assay
[2] = molecular target: T1, Phosphatidylinositol 4,5-bisphosphate 3-kinase catalytic subunit beta isoform (Homo sapiens, UniProt P42338); assay: Inhibition of PI3K beta by continuous TR-FRET assay
[3] = molecular target: T2, Phosphatidylinositol 4,5-bisphosphate 3-kinase catalytic subunit delta isoform (Homo sapiens, UniProt O00329); assay: Inhibition of PI3K delta by continuous TR-FRET assay
T2 sequence (O00329 whole entry): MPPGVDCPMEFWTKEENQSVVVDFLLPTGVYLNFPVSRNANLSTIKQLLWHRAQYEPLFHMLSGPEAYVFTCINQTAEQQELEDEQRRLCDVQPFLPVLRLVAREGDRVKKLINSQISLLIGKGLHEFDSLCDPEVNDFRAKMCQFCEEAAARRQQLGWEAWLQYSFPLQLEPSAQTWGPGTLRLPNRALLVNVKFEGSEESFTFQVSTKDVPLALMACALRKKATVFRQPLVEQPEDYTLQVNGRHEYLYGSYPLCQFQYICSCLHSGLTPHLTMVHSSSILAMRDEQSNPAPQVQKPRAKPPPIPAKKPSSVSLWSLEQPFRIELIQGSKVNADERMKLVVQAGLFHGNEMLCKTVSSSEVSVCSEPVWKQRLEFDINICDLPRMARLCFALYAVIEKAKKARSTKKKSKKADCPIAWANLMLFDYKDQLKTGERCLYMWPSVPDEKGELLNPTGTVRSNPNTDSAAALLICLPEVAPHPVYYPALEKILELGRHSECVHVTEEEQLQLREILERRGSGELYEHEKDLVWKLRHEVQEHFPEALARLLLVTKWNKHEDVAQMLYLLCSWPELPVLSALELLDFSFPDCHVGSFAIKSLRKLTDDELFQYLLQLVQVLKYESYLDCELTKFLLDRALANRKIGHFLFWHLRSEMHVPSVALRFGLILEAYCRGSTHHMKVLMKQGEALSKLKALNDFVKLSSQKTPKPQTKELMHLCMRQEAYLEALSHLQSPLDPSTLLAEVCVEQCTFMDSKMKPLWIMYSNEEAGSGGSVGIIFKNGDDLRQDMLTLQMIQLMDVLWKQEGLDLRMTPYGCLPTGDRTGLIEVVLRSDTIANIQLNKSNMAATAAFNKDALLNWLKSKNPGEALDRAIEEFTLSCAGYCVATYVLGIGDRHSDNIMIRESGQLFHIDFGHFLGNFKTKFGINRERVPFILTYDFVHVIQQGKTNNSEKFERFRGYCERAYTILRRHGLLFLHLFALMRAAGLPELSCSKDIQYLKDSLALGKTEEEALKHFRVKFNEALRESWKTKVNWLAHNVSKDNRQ

[4] = molecular target: Phosphatidylinositol 4,5-bisphosphate 3-kinase catalytic subunit gamma isoform (Homo sapiens, UniProt P48736); assay: Inhibition of PI3K gamma by continuous TR-FRET assay
[5] = molecular target: T1, Phosphatidylinositol 4,5-bisphosphate 3-kinase catalytic subunit beta isoform; assay: Inhibition of PI3K beta in human PTEN-deficient MDA-MB-468 cells assessed as inhibition of Akt Ser473 phosphorylation; type: cell-based
MDA-MB-468 = assay: Antiproliferative activity against PTEN-deficient human MDA-MB-468 cells; type: functional
[6] = Half life in CD mouse at 0.3 mg/kg, iv; type: ADME, organism-based; set-up: dose 0.3 mg/kg, route intravenous; conditions: in vivo
[7] = Volume of distribution at steady state in CD mouse at 0.3 mg/kg, iv; type: ADME, organism-based; set-up: dose 0.3 mg/kg, route intravenous; conditions: in vivo, read-out: Vdss
[8] = Clearance in CD mouse at 0.3 mg/kg, iv; type: ADME, organism-based; set-up: dose 0.3 mg/kg, route intravenous; conditions: in vivo
Mus musculus [9] = assay: Dose normalized AUC in CD mouse at 100 mg/kg, po; type: ADME, organism-based; set-up: dose 100 mg/kg, route oral; conditions: in vivo
[10] = Oral bioavailability in CD mouse at 100 mg/kg; type: ADME, organism-based; conditions: in vivo
Mus musculus [11] = assay: Inhibition of PI3K beta in human PTEN-deficient PC3 cells xenografted in nude mouse assessed as inhibition of AKT Ser473 phosphorylation at 100 and 300 mg/kg; type: functional, organism-based; set-up: dose 300 mg/kg; conditions: PC-3, TDE = time-dependent effect
Mus musculus [12] = assay: Inhibition of PI3K beta in human PTEN-deficient PC3 cells xenografted in nude mouse assessed as inhibition of AKT Ser473 phosphorylation at 100 mg/kg at 1 hr; type: functional; conditions: PC-3, 1 h
Mus musculus [13] = assay: Inhibition of PI3K beta in human PTEN-deficient PC3 cells xenografted in nude mouse assessed as inhibition of AKT Ser473 phosphorylation at 100 mg/kg at 2 hrs; type: functional; conditions: PC-3, 2 h
Mus musculus [14] = assay: Inhibition of PI3K beta in human PTEN-deficient PC3 cells xenografted in nude mouse assessed as inhibition of AKT Ser473 phosphorylation at 100 mg/kg at 4 hrs; type: functional; conditions: PC-3, 4 h
Mus musculus [15] = assay: Inhibition of PI3K beta in human PTEN-deficient PC3 cells xenografted in nude mouse assessed as inhibition of AKT Ser473 phosphorylation at 100 mg/kg at 6 hrs; type: functional; conditions: PC-3, 6 h
Mus musculus [16] = assay: Inhibition of PI3K beta in human PTEN-deficient PC3 cells xenografted in nude mouse assessed as inhibition of AKT Ser473 phosphorylation at 100 mg/kg at 8 hrs; type: functional; conditions: PC-3, 8 h
Mus musculus [17] = assay: Inhibition of PI3K beta in human PTEN-deficient PC3 cells xenografted in nude mouse assessed as inhibition of AKT Ser473 phosphorylation at 100 mg/kg at 10 hrs; type: functional; conditions: PC-3, 10 h
Mus musculus [18] = assay: Inhibition of PI3K beta in human PTEN-deficient PC3 cells xenografted in nude mouse assessed as inhibition of AKT Ser473 phosphorylation at 100 mg/kg at 24 hrs; type: functional; conditions: PC-3, 24 h
Mus musculus [19] = assay: Inhibition of PI3K beta in human PTEN-deficient PC3 cells xenografted in nude mouse assessed as inhibition of AKT Ser473 phosphorylation at 300 mg/kg at 1 hr; type: functional; conditions: PC-3, 1 h
Mus musculus [20] = assay: Inhibition of PI3K beta in human PTEN-deficient PC3 cells xenografted in nude mouse assessed as inhibition of AKT Ser473 phosphorylation at 300 mg/kg at 2 hrs; type: functional; conditions: PC-3, 2 h
Mus musculus [21] = assay: Inhibition of PI3K beta in human PTEN-deficient PC3 cells xenografted in nude mouse assessed as inhibition of AKT Ser473 phosphorylation at 300 mg/kg at 4 hrs; type: functional; conditions: PC-3, 4 h
Mus musculus [22] = assay: Inhibition of PI3K beta in human PTEN-deficient PC3 cells xenografted in nude mouse assessed as inhibition of AKT Ser473 phosphorylation at 300 mg/kg at 6 hrs; type: functional; conditions: PC-3, 6 h
Mus musculus [23] = assay: Inhibition of PI3K beta in human PTEN-deficient PC3 cells xenografted in nude mouse assessed as inhibition of AKT Ser473 phosphorylation at 300 mg/kg at 8 hrs; type: functional; conditions: PC-3, 8 h
Mus musculus [24] = assay: Inhibition of PI3K beta in human PTEN-deficient PC3 cells xenografted in nude mouse assessed as inhibition of AKT Ser473 phosphorylation at 300 mg/kg at 10 hrs; type: functional; conditions: PC-3, 10 h
Mus musculus [25] = assay: Inhibition of PI3K beta in human PTEN-deficient PC3 cells xenografted in nude mouse assessed as inhibition of AKT Ser473 phosphorylation at 300 mg/kg at 24 hrs; type: functional; conditions: PC-3, 24 h
Blood = assay: Ratio of drug uptake in blood at 300 mg/kg to drug uptake in blood at 100 mg/kg in nude mouse bearing PC3 cells; type: functional, PC-3
Nucleic Acid = assay: Ratio of drug uptake in tumor at 300 mg/kg to drug uptake in tumor at 100 mg/kg in nude mouse bearing PC3 cells; type: functional, organism-based; conditions: Neoplasm, PC-3
PC-3 = assay: Antitumor activity against human PC3 cells xenografted in nude mouse assessed as tumor growth inhibition at 100 and 300 mg/kg administered QD for 21 days relative to vehicle-treated control; type: functional, organism-based; set-up: dose 300 mg/kg
Mus musculus [26] = assay: Toxicity in nude mouse xenografted with human PC3 cells assessed as body weight loss at 100 and 300 mg/kg administered QD for 21 days; type: organism-based, PC-3; set-up: dose 300 mg/kg; conditions: in vivo, 504 h

T1 sequence (P42338 whole entry, canonical isoform): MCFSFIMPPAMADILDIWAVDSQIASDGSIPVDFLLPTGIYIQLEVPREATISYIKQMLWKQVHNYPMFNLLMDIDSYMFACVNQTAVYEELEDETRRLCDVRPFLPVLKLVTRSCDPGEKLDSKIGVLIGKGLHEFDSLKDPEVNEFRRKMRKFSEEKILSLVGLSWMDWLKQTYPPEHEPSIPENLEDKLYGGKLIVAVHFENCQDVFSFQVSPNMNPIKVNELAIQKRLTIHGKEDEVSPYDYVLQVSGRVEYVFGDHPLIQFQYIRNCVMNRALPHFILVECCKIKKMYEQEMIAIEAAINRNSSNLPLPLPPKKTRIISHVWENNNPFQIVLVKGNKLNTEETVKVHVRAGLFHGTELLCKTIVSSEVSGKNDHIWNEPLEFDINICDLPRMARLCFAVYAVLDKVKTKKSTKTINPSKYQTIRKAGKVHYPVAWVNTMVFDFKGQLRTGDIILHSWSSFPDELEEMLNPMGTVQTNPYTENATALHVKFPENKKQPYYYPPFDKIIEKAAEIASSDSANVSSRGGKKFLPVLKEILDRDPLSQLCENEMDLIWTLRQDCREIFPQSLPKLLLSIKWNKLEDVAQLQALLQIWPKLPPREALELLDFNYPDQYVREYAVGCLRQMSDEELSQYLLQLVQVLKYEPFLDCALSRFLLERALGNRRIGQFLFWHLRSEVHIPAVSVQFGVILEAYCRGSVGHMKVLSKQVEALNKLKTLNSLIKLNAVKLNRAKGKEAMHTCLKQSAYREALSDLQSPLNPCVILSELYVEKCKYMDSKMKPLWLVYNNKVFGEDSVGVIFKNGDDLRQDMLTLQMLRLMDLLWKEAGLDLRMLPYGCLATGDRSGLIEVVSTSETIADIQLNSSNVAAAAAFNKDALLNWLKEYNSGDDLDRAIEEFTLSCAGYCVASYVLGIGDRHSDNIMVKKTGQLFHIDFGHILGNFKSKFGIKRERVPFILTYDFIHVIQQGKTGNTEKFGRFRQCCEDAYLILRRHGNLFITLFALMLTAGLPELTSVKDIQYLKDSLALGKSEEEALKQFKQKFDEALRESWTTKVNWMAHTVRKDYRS
Phosphatidylinositol 4,5-bisphosphate 3-kinase catalytic subunit alpha isoform, sequence (P42336 whole entry, canonical isoform): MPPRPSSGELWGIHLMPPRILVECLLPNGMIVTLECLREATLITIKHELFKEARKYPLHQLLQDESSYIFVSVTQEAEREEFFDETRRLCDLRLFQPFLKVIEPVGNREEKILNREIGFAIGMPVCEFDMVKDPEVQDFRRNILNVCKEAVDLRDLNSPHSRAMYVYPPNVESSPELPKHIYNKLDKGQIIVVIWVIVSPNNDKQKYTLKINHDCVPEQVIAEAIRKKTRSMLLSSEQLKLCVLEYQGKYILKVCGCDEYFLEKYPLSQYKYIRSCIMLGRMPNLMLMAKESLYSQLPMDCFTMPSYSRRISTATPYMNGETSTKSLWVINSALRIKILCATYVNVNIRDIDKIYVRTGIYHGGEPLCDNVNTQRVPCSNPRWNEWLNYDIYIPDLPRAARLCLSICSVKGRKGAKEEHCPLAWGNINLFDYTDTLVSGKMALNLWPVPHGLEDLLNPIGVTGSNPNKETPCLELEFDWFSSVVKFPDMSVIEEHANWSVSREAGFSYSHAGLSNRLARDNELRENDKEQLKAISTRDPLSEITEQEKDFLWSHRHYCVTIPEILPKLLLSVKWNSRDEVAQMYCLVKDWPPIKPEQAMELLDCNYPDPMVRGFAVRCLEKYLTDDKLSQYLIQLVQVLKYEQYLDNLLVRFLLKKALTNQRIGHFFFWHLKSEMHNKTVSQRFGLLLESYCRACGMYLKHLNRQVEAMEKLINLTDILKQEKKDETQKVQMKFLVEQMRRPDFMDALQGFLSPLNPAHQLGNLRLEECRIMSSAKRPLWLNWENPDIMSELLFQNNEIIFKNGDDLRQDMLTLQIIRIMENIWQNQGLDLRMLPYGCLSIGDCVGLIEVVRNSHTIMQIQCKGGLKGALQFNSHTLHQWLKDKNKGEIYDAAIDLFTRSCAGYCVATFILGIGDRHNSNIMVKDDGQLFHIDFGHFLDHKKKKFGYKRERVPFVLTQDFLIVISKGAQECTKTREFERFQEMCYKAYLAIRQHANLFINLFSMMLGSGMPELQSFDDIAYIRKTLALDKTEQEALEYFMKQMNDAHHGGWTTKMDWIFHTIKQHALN
Phosphatidylinositol 4,5-bisphosphate 3-kinase catalytic subunit gamma isoform, sequence (P48736 whole entry, canonical isoform): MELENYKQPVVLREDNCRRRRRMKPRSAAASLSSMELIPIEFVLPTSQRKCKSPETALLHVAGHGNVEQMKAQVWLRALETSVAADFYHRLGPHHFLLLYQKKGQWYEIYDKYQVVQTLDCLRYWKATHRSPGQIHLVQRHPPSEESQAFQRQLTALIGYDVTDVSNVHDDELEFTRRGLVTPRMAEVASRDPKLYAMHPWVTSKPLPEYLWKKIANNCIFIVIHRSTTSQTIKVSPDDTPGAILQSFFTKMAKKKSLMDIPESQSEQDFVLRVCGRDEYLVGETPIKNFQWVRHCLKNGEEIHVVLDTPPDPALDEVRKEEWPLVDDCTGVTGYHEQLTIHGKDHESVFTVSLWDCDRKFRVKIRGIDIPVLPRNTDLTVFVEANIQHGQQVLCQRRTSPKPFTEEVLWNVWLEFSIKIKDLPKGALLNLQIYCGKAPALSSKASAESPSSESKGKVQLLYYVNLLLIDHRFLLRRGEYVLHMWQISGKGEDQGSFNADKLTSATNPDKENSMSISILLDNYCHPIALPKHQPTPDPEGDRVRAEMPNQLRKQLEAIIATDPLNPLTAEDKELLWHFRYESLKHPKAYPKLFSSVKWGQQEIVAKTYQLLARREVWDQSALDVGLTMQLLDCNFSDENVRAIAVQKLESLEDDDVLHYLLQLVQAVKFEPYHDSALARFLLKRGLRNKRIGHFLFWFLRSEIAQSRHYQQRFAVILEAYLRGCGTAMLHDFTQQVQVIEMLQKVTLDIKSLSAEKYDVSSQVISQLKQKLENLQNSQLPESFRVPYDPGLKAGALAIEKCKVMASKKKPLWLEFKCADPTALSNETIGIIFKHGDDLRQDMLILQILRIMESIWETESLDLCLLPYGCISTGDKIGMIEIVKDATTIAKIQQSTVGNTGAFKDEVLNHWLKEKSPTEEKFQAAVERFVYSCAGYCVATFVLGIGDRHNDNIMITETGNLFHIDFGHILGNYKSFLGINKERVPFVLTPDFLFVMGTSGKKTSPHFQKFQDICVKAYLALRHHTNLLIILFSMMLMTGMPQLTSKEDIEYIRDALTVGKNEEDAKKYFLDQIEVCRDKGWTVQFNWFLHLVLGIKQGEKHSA

- IC50 [1]: 2500 nM
- IC50 [2]: 0.6 nM
- IC50 [3]: 20 nM
- IC50 [4]: 790 nM
- EC50 [5]: 24 nM
- GI50 (MDA-MB-468): 103 nM
- half-life [6]: 1.2 h
- Vd [7]: 2.8 L/kg
- clearance [8]: 29.6 mL/min/kg
- AUC/dose (Mus musculus [9]): 278 ng/(hr.mL.mg.kg)
- bioavailability [10]: 49%
SMILES: Cc1c(Cn2c(C)nc(=O)c3sc(N4CCOCC4)nc32)cccc1C(F)(F)F
- inhibition (Mus musculus [11]): tde
- inhibition in vivo at 100 mg/kg (Mus musculus [12]): 63%
- inhibition in vivo at 100 mg/kg (Mus musculus [13]): 53%
- inhibition in vivo at 100 mg/kg (Mus musculus [14]): 58%
- inhibition in vivo at 100 mg/kg (Mus musculus [15]): 64%
- inhibition in vivo at 100 mg/kg (Mus musculus [16]): 46%
- inhibition in vivo at 100 mg/kg (Mus musculus [17]): 33%
- inhibition in vivo at 100 mg/kg (Mus musculus [18]): -17%
- inhibition in vivo at 300 mg/kg (Mus musculus [19]): 68%
- inhibition in vivo at 300 mg/kg (Mus musculus [20]): 72%
- inhibition in vivo at 300 mg/kg (Mus musculus [21]): 63%
- inhibition in vivo at 300 mg/kg (Mus musculus [22]): 64%
- inhibition in vivo at 300 mg/kg (Mus musculus [23]): 48%
- inhibition in vivo at 300 mg/kg (Mus musculus [24]): 24%
- inhibition in vivo at 300 mg/kg (Mus musculus [25]): -1%
- Ratio (Blood): 1.2
- Ratio (Nucleic Acid): 1.2
- TGI (PC-3): Active
- Activity (Mus musculus [26]): Non-toxic
